Data on eleven compounds can be found in US20090227600A1, “4-(PYRAZINE-2-YL) -PYRROLIDINE -2-CARBOXYLIC ACID COMPOUNDS AND DERIVATIVES THEREOF AS HEPATITIS C VIRUS INHIBITORS” (priority 2004, published 2009).

Molecules are shown by their SMILES.

For assay [1], the target named is T1, HCV RNA Polymerase, recombinant full-length NS5B, genotype 1b (Hepatitis C virus genotype 1b, UniProt Q9WMX2).
T1 construct: Recombinant full-length NS5B; made in house
As to the kind of experiment: In vitro HCV RNA-dependent RNA polymerase inhibition assay, genotype 1b full-length enzyme. The format is biochemical, HCV genotype 1b. The settings on record: genotype 1b full-length NS5B enzyme. Here is the method: (§1) Incorporation of [^33P]-GMP into RNA was followed by absorption of the biotin labelled RNA polymer by streptavidin containing SPA beads. A synthetic template consisting of biotinylated 13mer-oligoG hybridised to polyrC was used as a homopolymer substrate.
b) Genotype 1b Full-Length Enzyme
Reaction Conditions were 0.5 μM [^33P]-GTP (20 Ci/mMol), 1 mM Dithiothreitol, 20 mM MgCl2, 5 mM MnCl2, 20 mM Tris-HCl, pH7.5, 1.6 μg/mL polyC/0.256 μM biotinylated oligoG13, 10% glycerol, 0.01% NP-40, 0.2 u/μL RNasin and 50 mM NaCl.
HCV RNA Polymerase (Recombinant full-length NS5B (Lohmann et al, J. Virol. 71 (11), 1997, 8416. ‘Biochemical properties of hepatitis C virus NS5B RNA-dependent RNA polymerase and identification of amino acid sequence motifs essential for enzymatic activity’) expressed in baculovirus and purified to homogeneity) was added to 4 nM final concentration.
5× concentrated assay buffer mix was prepared using 1M MnCl2 (0.25 mL), glycerol (2.5 mL), 10% NP-40 (0.025 mL) and Water (7.225 mL), Total 10 mL.
2× concentrated enzyme buffer contained 1M-Tris-HCl, pH7.5 (0.4 mL), 5M NaCl (0.2 mL), 1M-MgCl2 (0.4 mL), glycerol (1 mL), 10% NP-40 (10 μL), 1M DTT (20 μL) and water (7.97 mL), Total 10 mL.
Substrate Mix was prepared using 5× Concentrated assay Buffer mix (4 μL), [^33P]-GTP (10 μCi/μL, 0.02 μL), 25 μM GTP (0.4 μL), 40 u/μL RNasin (0.1 μL), 20 μg/mL polyrC/biotinylated-oligoG (1.6 μL), and Water (3.94 μL), Total 10 μL.
Enzyme Mix was prepared by adding 1 mg/ml full-length NS5B polymerase (1.5 μL) to 2.81 mL 2×-concentrated enzyme buffer.
The Assay was set up using compound (1 μL), Substrate Mix (10 μL), and Enzyme Mix (added last to start reaction) (10 μL), Total 21 μL.
The reaction was performed in a U-bottomed, white, 96-well plate. The reaction was mixed on a plate-shaker, after addition of the Enzyme, and incubated for 1 h at 22° C. After this time, the reaction was stopped by addition of 40 μL 1.875 mg/ml streptavidin SPA beads in 0.1 M EDTA. The beads were incubated with the reaction mixture for 1 h at 22° C. after which 120 μL 0.1 M EDTA in PBS was added. The plate was sealed, mixed centrifuged and incorporated radioactivity determined by counting in a Trilux (Wallac) or Topcount (Packard) Scintillation Counter.
After subtraction of background levels without enzyme, any reduction in the amount of radioactivity incorporated in the presence of a compound, compared to that in the absence, was taken as a measure of the level of inhibition. Ten concentrations of compounds were tested in three- or fivefold dilutions. From the counts, percentage of inhibition at highest concentration tested or IC50s for the compounds were calculated using GraFit 3, GraFit 4 or GraFit 5 (Erithacus Software Ltd.) software packages or a data evaluation macro for Excel based on XLFit Software (IDBS).

Assay [2] deals with T2, HCV RNA Polymerase, recombinant NS5B with C-terminal 21 amino acid deletion, genotype 1a strain H77 (Hepatitis C virus genotype 1a, UniProt P27958).
T2 construct: fused on or other part: C-terminal 6His-tag
Put plainly: In vitro HCV RNA-dependent RNA polymerase inhibition assay, genotype 1a C-terminally truncated (delta21) enzyme. The format is biochemical, HCV genotype 1a. The settings on record: genotype 1a delta21 NS5B enzyme; read-out: IC50 in delta-21 1a enzyme inhibition assay.
From the text: as §1
a) Genotype 1a C-Terminally Truncated (delta21) Enzyme
HCV RNA Polymerase [Recombinant NS5B with C-terminal 21 amino acid deletion and C-terminal 6His-tag (Ferrari et al. J. Virol, 73(2), 1999, 1649. ‘Characterization of soluble hepatitis C virus RNA-dependent RNA polymerase expressed in Escherichia coli.’) expressed in E. coli and purified to homogeneity] was added to 25 nM final concentration. Polymerase of genotype 1a was from strain H77 (Yanagi, M., Purcell, R. H., Emerson, S. U. & Bukh, J. (1997), Proceedings of the National Academy of Sciences, USA 94, 8738-8743) containing a sequence change from valine to isoleucine at position 180.
Reaction Conditions were 25 nM enzyme, 1.5 μg/ml oligo-rG13/poly-rC and 0.2 μCi α-^33P-GTP in 0.5 μM GTP (20 Ci/mMol), 20 mM Tris pH 7.5, 23 mM NaCl, 3 mM DTT, 5 mM MgCl2, 1 mM MnCl2.
Enzyme was diluted to 500 nM concentration in 20 mM Tris-HCl, pH 7.5, 25 mM NaCl and 3 mM DTT.
4× concentrated assay buffer mix was prepared using 1M Tris-HCl, pH7.5 (1 mL), 5M NaCl (0.25 mL), 1M DTT (0.12 mL) and Water (8.63 mL), Total 10 mL.
2× concentrated first reagent was prepared using 4× concentrated assay buffer mix (5 μL), 40 u/μL RNasin (0.1 μL), 20 μg/mL polyrC/biotinylated-oligoG (1.6 μL), 500 nM enzyme (1 μL) and Water (2.3 μL), Total 10 μl/well.
2× concentrated second reagent was prepared using 1M MgCl2 (0.1 μL), 1M MnCl2 (0.02 μL), 25 μM GTP (0.4 μL), α-[^33P]-GTP (10 μCi/μL, 0.02 μL) and water (9.5 μL), Total 10 μL/well.
The assay was set up using compound (1 μL in 100% DMSO), first reagent (10 μL), and second reagent (10 μL), Total 21 μL.
The reaction was performed in a U-bottomed, white, 96-well plate. The reaction was mixed on a plate-shaker, after addition of the Enzyme, and incubated for 1 h at 22° C. After this time, the reaction was stopped by addition of 60 μL 1.5 mg/ml streptavidin SPA beads (Amersham) in 0.1 M EDTA in PBS. The beads were incubated with the reaction mixture for 1 h at 22° C. after which 100 μL 0.1 M EDTA in PBS was added. The plate was sealed, mixed centrifuged and incorporated radioactivity determined by counting in a Trilux (Wallac) or Topcount (Packard) Scintillation Counter.
After subtraction of background levels without enzyme, any reduction in the amount of radioactivity incorporated in the presence of a compound, compared to that in the absence, was taken as a measure of the level of inhibition. Ten concentrations of compounds were tested in three- or fivefold dilutions. From the counts per minute, percentage of inhibition at highest concentration tested or IC50s for the compounds were calculated using GraFit 3, GraFit 4 or GraFit 5 (Erithacus Software Ltd.) software packages or a data evaluation macro for Excel based on XLFit Software (IDBS).

T1 sequence (Q9WMX2 2420-3010): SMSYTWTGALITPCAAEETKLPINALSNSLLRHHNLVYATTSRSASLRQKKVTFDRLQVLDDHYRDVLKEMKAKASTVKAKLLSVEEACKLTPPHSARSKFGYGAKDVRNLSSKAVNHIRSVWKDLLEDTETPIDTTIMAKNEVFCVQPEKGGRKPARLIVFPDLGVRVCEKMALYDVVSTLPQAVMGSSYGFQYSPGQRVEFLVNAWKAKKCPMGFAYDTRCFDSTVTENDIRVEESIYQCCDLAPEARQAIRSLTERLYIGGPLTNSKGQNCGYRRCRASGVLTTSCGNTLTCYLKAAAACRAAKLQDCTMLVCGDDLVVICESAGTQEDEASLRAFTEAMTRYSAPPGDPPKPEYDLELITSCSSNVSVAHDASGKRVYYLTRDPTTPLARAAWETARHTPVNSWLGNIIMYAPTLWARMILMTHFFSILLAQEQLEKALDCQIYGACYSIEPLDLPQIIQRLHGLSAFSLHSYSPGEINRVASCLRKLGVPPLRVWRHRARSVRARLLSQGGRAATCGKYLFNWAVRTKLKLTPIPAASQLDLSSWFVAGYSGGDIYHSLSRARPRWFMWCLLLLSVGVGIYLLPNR
T2 sequence (P27958 2421-3011 V2599I, form open): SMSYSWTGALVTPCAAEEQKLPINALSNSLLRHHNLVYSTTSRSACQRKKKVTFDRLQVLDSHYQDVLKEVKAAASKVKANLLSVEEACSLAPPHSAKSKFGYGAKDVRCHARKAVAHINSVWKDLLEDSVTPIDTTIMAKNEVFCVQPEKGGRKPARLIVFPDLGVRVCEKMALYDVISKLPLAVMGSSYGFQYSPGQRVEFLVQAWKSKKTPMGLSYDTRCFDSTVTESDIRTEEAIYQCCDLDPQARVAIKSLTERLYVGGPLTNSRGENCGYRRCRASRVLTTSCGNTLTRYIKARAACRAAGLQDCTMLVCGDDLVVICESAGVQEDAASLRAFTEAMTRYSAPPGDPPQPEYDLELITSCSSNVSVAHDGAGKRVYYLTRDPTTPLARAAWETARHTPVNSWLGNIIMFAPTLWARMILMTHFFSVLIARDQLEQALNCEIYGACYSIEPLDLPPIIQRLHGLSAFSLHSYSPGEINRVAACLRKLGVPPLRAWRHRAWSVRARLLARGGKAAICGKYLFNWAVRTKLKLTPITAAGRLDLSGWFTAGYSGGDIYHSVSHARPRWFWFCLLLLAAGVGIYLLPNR

Take `COc1cc(C(=O)N2[C@@H](c3nccs3)[C@@H](c3cnccn3)C[C@@]2(CC(C)C)C(=O)O)ccc1C(C)(C)C` (racemic) [Compound A, rel-(2S,4S,5R)-2-Isobutyl-1-(4-tert-butyl-3-methoxybenzoyl)-4-(pyrazin-2-yl)-5-(1,3-thiazol-2-yl)pyrrolidine-2-carboxylic acid, reference compound]: the IC50 in assay [1] was 100 to 500 nM; in assay [2] it was more than 1000 nM.
For the compound `COc1cc(C(=O)N2[C@@H](c3nccs3)[C@@H](c3cnccn3)C[C@@]2(Cc2ccccn2)C(=O)O)ccc1C(C)(C)C` (racemic) [Compound C, rel-(2R,4S,5R)-1-(4-tert-Butyl-3-methoxybenzoyl)-2-(pyridin-2-ylmethyl)-4-(pyrazin-2-yl)-5-(1,3-thiazol-2-yl)pyrrolidine-2-carboxylic acid, reference compound], the IC50 in assay [1] lay in the range of 100 to 500 nM; in assay [2] it was 150 to 1000 nM.
`COc1cc(C(=O)N2[C@@H](c3nccs3)[C@@H](c3cnccn3)C[C@@]2(Cc2c[nH]cn2)C(=O)O)ccc1C(C)(C)C` (racemic) [Compound D, rel-(2R,4S,5R)-1-(4-tert-Butyl-3-methoxybenzoyl)-2-(1H-imidazol-4-yl-methyl)-4-(pyrazin-2-yl)-5-(1,3-thiazol-2-yl)-pyrrolidine-2-carboxylic acid, reference compound]: the IC50 in assay [1] is 100 to 500 nM; in assay [2] it was more than 1000 nM.
In the case of `COc1cc(C(=O)N2[C@@H](c3cncs3)[C@@H](c3cnccn3)C[C@@]2(CCSC)C(=O)O)ccc1C(C)(C)C` (racemic) [Compound E, rel-(2R,4S,5R)-1-(4-tert-Butyl-3-methoxybenzoyl)-2-(2-(methylthio)ethyl)-4-(pyrazin-2-yl)-5-(1,3-thiazol-5-yl)-pyrrolidine-2-carboxylic acid, reference compound], the IC50 in assay [1] was 100 to 500 nM; in assay [2] it was more than 1000 nM.
For `COc1cc(C(=O)N2[C@@H](c3nccs3)[C@@H](c3cnccn3)C[C@@]2(CCS(C)(=O)=O)C(=O)O)ccc1C(C)(C)C` (racemic) [Compound F, rel-(2R,4S,5R)-1-(4-tert-Butyl-3-methoxybenzoyl)-2-(2-(methylsulphonyl)ethyl)-4-pyrazin-2-yl-5-(1,3-thiazol-2-yl)-pyrrolidine-2-carboxylic acid, reference compound], the results for the IC50 in assay [1] and in assay [2] were more than 500 nM and more than 1000 nM, respectively.
`COc1cc(C(=O)N2[C@@H](c3nccs3)[C@@H](c3cnccn3)C[C@@]2(Cc2ccccc2)C(=O)O)ccc1C(C)(C)C` (racemic) [Compound G, rel-(2R,4S,5R)-1-(4-tert-Butyl-3-methoxybenzoyl)-2-(phenylmethyl)-4-(pyrazin-2-yl)-5-(1,3-thiazol-2-yl)pyrrolidine-2-carboxylic acid, reference compound]: the IC50 in assay [1] is 100 to 500 nM; in assay [2], more than 1000 nM.
The matching figures for `COc1cc(C(=O)N2[C@@H](c3nccs3)[C@@H](c3cnccn3)C[C@@]2(Cc2cscn2)C(=O)O)ccc1C(C)(C)C` (racemic) [Example 1, rel-(2R,4S,5R)-1-(3-Methoxy-4-tert-butylbenzoyl)-4-(pyrazin-2-yl)-2-(1,3-thiazol-4-ylmethyl)-5-(1,3-thiazol-2-yl)pyrrolidine-2-carboxylic acid]: less than 100 nM and less than 150 nM.
Take `COc1cc(C(=O)N2[C@@H](c3nccs3)[C@@H](c3cnccn3)C[C@@]2(Cc2nccs2)C(=O)O)ccc1C(C)(C)C` (racemic) [Example 3, rel-(2R,4S,5R)-1-(3-Methoxy-4-tert-butylbenzoyl)-4-(pyrazin-2-yl)-2-(1,3-thiazol-2-ylmethyl)-5-(1,3-thiazol-2-yl)pyrrolidine-2-carboxylic acid]: the results for the IC50 in assay [1] and in assay [2] were less than 100 nM and less than 150 nM, respectively.
Regarding `COc1cc(C(=O)N2[C@@H](c3ncc(C)s3)[C@@H](c3cnccn3)C[C@@]2(Cc2ccsn2)C(=O)O)ccc1C(C)(C)C` (racemic) [Example 5, rel-(2R,4S,5R)-1-(3-Methoxy-4-tert-butylbenzoyl)-5-(5-methyl-1,3-thiazol-2-yl)-4-(pyrazin-2-yl)-2-(1,2-thiazol-3-ylmethyl)pyrrolidine-2-carboxylic acid], the IC50 is less than 100 nM in assay [1] and less than 150 nM in assay [2].
Turning to `COc1cc(C(=O)N2[C@@H](c3nccs3)[C@@H](c3cnccn3)C[C@@]2(Cc2ccsn2)C(=O)O)ccc1C(C)(C)C` (racemic) [Example 7, rel-(2R,4S,5R)-1-(3-Methoxy-4-tert-butylbenzoyl)-4-(pyrazin-2-yl)-2-(1,2-thiazol-3-ylmethyl)-5-(1,3-thiazol-2-yl)pyrrolidine-2-carboxylic acid], the IC50 was less than 100 nM in assay [1] and less than 150 nM in assay [2].
Take `COc1cc(C(=O)N2[C@@H](c3ncc(C)s3)[C@@H](c3cnccn3)C[C@@]2(Cn2cccn2)C(=O)O)ccc1C(C)(C)C` (racemic) [Example 9, rel-(2R,4S,5R)-1-(3-Methoxy-4-tert-butylbenzoyl)-5-(5-methyl-1,3-thiazol-2-yl)-4-(pyrazin-2-yl)-2-(1H-pyrazol-1-ylmethyl)pyrrolidine-2-carboxylic acid]: the IC50 was less than 100 nM in assay [1] and less than 150 nM in assay [2].
